Structures are written as SMILES. Values joined by “and” are separate entries in the source; they are usually repeats but may differ in a detail not shown here. Identical values can stand only once.

These results are taken from article PMC6595003, “Insights into real-time chemical processes in a calcium sensor protein-directed dynamic library” (Nature Communications, 2019).

Data set [1] addresses T1, dNCS-1 (Drosophila melanogaster, UniProt Q9VWX8).
T1 construct: made in house; host or cells: E. coli
T1 sequence (Q9VWX8 1-187): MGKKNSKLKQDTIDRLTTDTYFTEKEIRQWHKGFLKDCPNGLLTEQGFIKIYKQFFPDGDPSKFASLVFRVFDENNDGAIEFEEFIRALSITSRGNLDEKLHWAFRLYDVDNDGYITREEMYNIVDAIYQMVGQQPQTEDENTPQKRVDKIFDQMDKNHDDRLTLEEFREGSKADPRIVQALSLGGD
Description: Tryptophan emission fluorescence of dNCS-1 at increasing ligand concentrations (apparent Kd). Type of data set: binding. As for the experimental part:
Fluorescence-based experiments with 3a–3e were carried out to estimate their affinity to dNCS-1.
Mean ± SD from three independent experiments. The curves represent the least squares fitting of the experimental data to a 1:1 stoichiometry. To properly compare the different curves, intensities were normalized and represented. […] Input represents 1/10 cell lysates before IP. Quantifications of each lane from four experiments are shown below the blots. Bars represent percentage of NCS-1/ Ric8a binding (mean ± SD) normalized to DMSO. […] Mean ± SD from three independent experiments. […] Then, the percentage of picnotic bodies over the total nuclei was analyzed. Mean ± SD from three independent experiments. Paired two-tailed Student’s test ***P˂0.001; **P < 0.01; *P < 0.05. Source data are provided as a Source Data file. IP immunoprecipitation, WB western blot […]
the length of the pass light (L) is 1cm (see Supplementary Table 3 and Supplementary […]
Fluorescence emission experiments. Tryptophan emission fluorescence of dNCS-1 […]
affinity and calculate the apparent dissociation constant, Kd. Fluorescence measurements were performed by Jobin Yvon Floromax4 spectrofluorimeter equipped […]
5% DMSO at 5 °C. The excitation wavelength was fixed at 295 nm, and the emission spectra range were collected over 300-400 nm.
Then, three independent experiments were performed
Fluorescence intensities were normalized and represented as (I0 − I)/I 0. I stands for the observed fluorescence emission at 345 nm (fluorescence maximum), and I0 is the observed fluorescence emission of the protein itself without any small molecule. The apparent dissociation constant was obtained using a least squares algorithm to fit the experimental data to a 1:1 stoichiometry model.6 The fitting was performed with KaleidaGraph Data Analysis Program. […]
Protein expression and purification. Drosophila and human NCS-1 were over-expressed in E. coli and subsequently purified to homogeneity as previously described.9

Data set [2] concerns NCS-1/Ric8a interaction. More on the design: method as in PMID 28119500, PMID 29966094. To be noted: cited from earlier work.
Data set [3] concerns Cortical neurons from E14 wild-type mice. The data set can be described thus: Toxicity in primary cultured neurons (percentage of picnotic bodies). The conditions noted are these: C57BL6J, mouse, 24 h. Type of data set: cell-based. The text has this: (§1) Mean ± SD from three independent experiments. The curves represent the least squares fitting of the experimental data to a 1:1 stoichiometry. To properly compare the different curves, intensities were normalized and represented. […] Input represents 1/10 cell lysates before IP. Quantifications of each lane from four experiments are shown below the blots. Bars represent percentage of NCS-1/ Ric8a binding (mean ± SD) normalized to DMSO. […] CNS + (green) for Pe > 4.47 × 10^−6 cm s^−1, CNS- (red) for compounds with Pe < 4.47 × 10^–6 cm s^−1. […] Mean ± SD from three independent experiments. […] Then, the percentage of picnotic bodies over the total nuclei was analyzed. Mean ± SD from three independent experiments. Paired two-tailed Student’s test ***P˂0.001; **P < 0.01; *P < 0.05. Source data are provided as a Source Data file. IP immunoprecipitation, WB western blot
Finally, cell toxicity in neurons was quantified as percentage of picnotic bodies for 3b (Fig. 6d).
Cortical neurons were obtained from E14 wt mice (C57BL6J). Mice were maintained in accordance to European law and following Hospital Ramón y Cajal´s animal guidelines. […] Three independent experiments counting cells from three different wells per concentration were performed. To analyzed cell death, neurons were fixed and stained with DAPI.

For data set [4], the target named is T2, NCS-1/Ric8a interaction (Homo sapiens, UniProt P62166).
T2 construct: expressed in transfected cells; host or cells: HEK293 cells (Dharmacon)
T2 sequence (P62166 2-190 limits assumed): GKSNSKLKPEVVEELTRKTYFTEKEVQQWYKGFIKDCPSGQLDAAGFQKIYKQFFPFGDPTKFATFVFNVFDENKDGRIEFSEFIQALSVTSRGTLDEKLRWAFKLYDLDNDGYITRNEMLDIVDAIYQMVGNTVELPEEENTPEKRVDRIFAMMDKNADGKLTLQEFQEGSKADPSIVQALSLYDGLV
Description: Co-IP binding assay of human NCS-1 and V5-tagged Ric8a in transfected HEK cells. Type of data set: cell-based. To be noted: compound 20 μM.
Description: as §1
Binding assays with NCS-1 and Ric8a in co-transfected HEK cells were carried out to study the modulation effect of compounds 3a, 3b and 3d in the protein-protein interaction (Fig. 6b).
hNCS-1 and V5-tagged hRic8a were co-transfected into HEK293 cells (Dharmacon) using Lipofectamine 2000 (Invitrogen)[13]. After 24 h, after transfection, DMSO alone or the compounds dissolved in DMSO (20 μM) were added to the culture cells. Then, 24 h after transfection, cells were lysed with Lysis buffer (150 mM NaCl, 1.0% Nonidet P-40, 50 mM Tris, pH 8.0) in the presence of the compounds (20 μM), whose concentration was maintained throughout the immunoprecipitation assay. Precleared lysates were incubated overnight (12 h) at 4 °C with mouse anti-NCS-1 (1:500; Cell Signaling). Samples were subsequently incubated overnight with Protein-G-Sepharose (Sigma-Aldrich), washed and eluted from the Sepharose. Samples were analyzed by Western blot following standard procedures. […] Original representative western blots are found in Source Data file.

Data set [5] has as its target T1, dNCS-1. Description: tr-NOESY, DOSY and 1H-NMR of DCL mixtures in the presence of dNCS-1. The format is binding. To be noted: 281 K, up to 15 days. The method, then: Fig. 4 HPLC-MS and NMR studies of the full dynamic combinatorial library. a DCL chromatograms after 5 h in the absence and in the presence of dNCS-1. Conditions: aldehyde 1 (1.2 µL, 50 mM), 2a–2e (3.6 µL, 50 mM), catalyst (1 µL, 12 M), dNCS-1:1 [1:1], Tris buffer (20 mM, pH 7.4), 1 mM CaCl2, 0.5 M NaCl, 1 mM DTT, T = 4 °C, 2% DMSO. DCC experiments were carried out in triplicate. b 1D-^1H NMR spectrum (red) of the mixture and DOSY experiment (black) of the DCL in the presence of dNCS-1 (281 K, 600 MHz). c Tr-NOESY spectrum of the DCL mixture in the presence of dNCS-1 (mixing time 200 ms, 281 K, 600 MHz). Amplification of the region δ 7.2–8.0 ppm. […]. The new signals that reveal the formation of 3b (aromatic region) and 2c (aliphatic region) are marked with stars. ^1H-STD-NMR (blue) and off-resonance (red) NMR spectra of the mixture 2b + 3c + dNCS-1 (281 K, 600 MHz) after 15 days
DOSY-NMR and tr-NOESY-NMR experiments were also recorded to follow the exchange process.
The experiments were performed on the same samples and spectrometer, at 281 K. The tr-NOESY mixing time was fixed at 200 ms. The DOSY experiments were acquired with 16 gradient increments to a final intensity decay of 90%.

Data set [6] concerns the target T1, dNCS-1. Description: Protein-directed DCL, HPLC-MS relative peak area with and without dNCS-1. The method, then:
The reversibility of the DCL was evident, since an identical equilibrium distribution to that shown in Fig. 4a was obtained when two different starting points were employed. The observed degree of amplification was 3b > 3e ≥ 3d > 3a. The precise composition of the DCL (with and without dNCS-1), was assessed by measuring the relative peak area (RPA). Indeed, the normalized change of RPA was used to quantify the protein influence in the final outcome (Supplementary Figs. 9, 10 and Supplementary Tables 1, 2 and 3)[28]. […] Note that compounds 3a–3e can exist as E/Z isomers of the C = N bond. […].
Aldehyde 1 (1.2 μL, 50 mM, DMSO), the five acylhydrazides 2a–2e (5 × 3.6 μL, 50 mM, DMSO), p-anisidine (1 μL, 12 M, DMSO) and buffer 20 mM Tris, 0.5 M NaCl and 1 mM CaCl2, 1 mM DTT at pH 7.4 (750 μL) in 3.3 % DMSO. The mixture was stabilized in 5 h at 4 °C. HPLC analysis was performed.
Aldehyde 1 (1.2 μL, 50 mM, DMSO), the five acylhydrazides 2a–2e (5 × 3.6 μL, 50 mM, DMSO), p-anisidine (1 μL, 12 mM, DMSO) and dNCS-1 in buffer 20 mM Tris, 0.5 M NaCl and 1 mM CaCl2, 1 mM DTT at pH 7.4 (66.7 μM, 750 μL, 1 eq.). The experiment is in 3.3% DMSO. The mixture was stabilized for 5 h at 4 °C. Then, dNCS-1 was removed by ultrafiltration using an Amicon Ultra filter (0.5–10 KDa). HPLC analysis was performed and the traces were compared with the blank composition.
Supplementary Figure 9. Relative Peak Area of the DCL with and without dNCS1. Aldehyde
1 (1.2 µL, 50 mM), 2a-e (3.6 µL, 50 mM), catalyst (1 µL, 12 M), dNCS-1:1 [1:1], tris buffer (20
mM, pH 7.4), 1 mM CaCl2, 0.5 M NaCl, 1 mM DTT, T = 4 °C, 2% DM SO. Mean relative peak
area (RPA) of each acylhydrazone of the library in the absence (blank) and presence of dNCS-1.
Error bars indicate standard deviation (SD) over three experiments. The calculation is set by the
sum of all peak areas to 100% and assigning each peak its percentage. Source data are provided
R P A N o rm aliz ed V a riation
Supplementary Figure 10. RPA normalized of variation of DCL with and without dNCS1.
Aldehyde 1 (1.2 µL, 50 mM), 2a-e (3.6 µL, 50 mM), catalyst (1 µL, 12 M), dNCS-1:1 [1:1], tris
buffer (20 mM, pH 7.4), 1 mM CaCl2, 0.5 M NaCl, 1 mM DTT, T = 4 °C, 2% DM SO. Error
bars indicate SD over three experiments. Source data are provided as a Source Data file.

[7] abbreviates: Ca2+ loaded dNCS-1 0.8 µM, pH 7.9, 5% DMSO, 5 °C, fit to 1:1 stoichiometry, three independent experiments.

In the case of `CN(C)CCCN1c2ccccc2Sc2ccc(Cl)cc21` [CPZ, Chlorpromazine, reference compound], the Kd at dNCS-1 [1] (setting [7]) was 12 ± 2 µM. Moreover, the “Normalized Fluorescence I0-I/I0” value on dNCS-1 [1] (ligand 3.2 μM) is on record as 0.266; at dNCS-1 [1] (ligand 6.4 μM), 0.263; at dNCS-1 [1] (ligand 8 μM), 0.448; on dNCS-1 [1] (ligand 16 μM), 0.643; at dNCS-1 [1] (ligand 24 μM), 0.730; at dNCS-1 [1] (ligand 32 μM), 0.794. Also, the “reported inhibition of the NCS-1/Ric8a interaction” value in the data set on NCS-1/Ric8a interaction [2] was “mild inhibitor and mild”. Further, the “percentage of picnotic bodies over total nuclei, average” value in data set [3] (0.2 μM) is recorded as 11.1667%; in data set [3] (2 μM) it was 15.1%; in data set [3] (10 μM), 22.2333%; in data set [3] (20 μM) it was 38.7667%. Also, the “percentage of picnotic bodies, % exp 2” value in data set [3] (0.2 μM) turned out to be 9.6%; in data set [3] (2 μM), 11%; in data set [3] (10 μM) it was 25.7%; in data set [3] (20 μM), 29.3%. The “percentage of picnotic bodies, % exp 3” value in data set [3] (0.2 μM) is given as 11.1%; in data set [3] (2 μM), 19.3%; in data set [3] (10 μM), 15%; in data set [3] (20 μM) it was 39%. Further, the “percentage of picnotic bodies, % exp.1” value in data set [3] (0.2 μM) is listed as 12.8%; in data set [3] (2 μM) it was 15%; in data set [3] (10 μM) it was 26%; in data set [3] (20 μM), 48%. The “modulation of the NCS-1/Ric8a binding” value at NCS-1/Ric8a interaction [4] (compared with DMSO (basal binding 100%)) is “reduced binding”. Also, the “Densitometry of V5-Ric8a co-immunoprecipitated with NCS-1, exp3” value at NCS-1/Ric8a interaction [4] (DMSO in the same experiment 4613104) turned out to be 3547054. Further, the “Densitometry of V5-Ric8a co-immunoprecipitated with NCS-1, exp2” value at NCS-1/Ric8a interaction [4] (DMSO in the same experiment 9508518) amounted to 4354560. Further, the “Densitometry of V5-Ric8a co-immunoprecipitated with NCS-1, exp1” value at NCS-1/Ric8a interaction [4] (DMSO in the same experiment 19247016) came to 3883518.
Regarding `COCCC(=O)N/N=C/c1ccc([N+](=O)[O-])c(O)c1` [3c], the “apparent Kd” value on dNCS-1 [1] (setting [7]) is “did not show affinity”. In addition, the “binding to dNCS-1 (1H-NMR evolution of the mixture 3c + 2b with dNCS-1)” value on dNCS-1 [5] is reported as “extremely weak or non-binder”. Besides, the “degree of amplification in the DCL in presence of dNCS-1” value at dNCS-1 [6] (after 5 h, 4 °C, pH 7.4, p-anisidine catalyst) is “clearly reduced in presence of dNCS-1”. Also, the “RPA, Blank DCL” value on dNCS-1 [6] (as fraction of total area) was found to be 0.09603. The “RPA, Templated DCL” value at dNCS-1 [6] (as fraction of total area, with dNCS-1) came to 0. Besides, the “RPA (%) with protein (templated DCL)” value at dNCS-1 [6] (relative peak area in presence of dNCS-1) is on record as 0%. Besides, the “RPA (%) without protein (blank DCL)” value at dNCS-1 [6] (relative peak area, sum of all peak areas set to 100%) is 9.6% and 9.603%. For the same compound, the RPA (%), Blank DCL at dNCS-1 [6] (sheet Supplementary Figure 10) was found to be 9.6%. The RPA (%), Templated DCL on dNCS-1 [6] (sheet Supplementary Figure 10, with dNCS-1) was found to be 0%. The “Normalized Change of RPA” value on dNCS-1 [6] (with vs without dNCS-1) is -1.
